For experiment [1], the target named is T1, BRC4/RAD51 interaction (Homo sapiens, UniProt Q06609).
T1 construct: purchased Creative Biomart (Rad51); Life Technologies (BRC4 peptide)
T1 sequence (Q06609 1-339): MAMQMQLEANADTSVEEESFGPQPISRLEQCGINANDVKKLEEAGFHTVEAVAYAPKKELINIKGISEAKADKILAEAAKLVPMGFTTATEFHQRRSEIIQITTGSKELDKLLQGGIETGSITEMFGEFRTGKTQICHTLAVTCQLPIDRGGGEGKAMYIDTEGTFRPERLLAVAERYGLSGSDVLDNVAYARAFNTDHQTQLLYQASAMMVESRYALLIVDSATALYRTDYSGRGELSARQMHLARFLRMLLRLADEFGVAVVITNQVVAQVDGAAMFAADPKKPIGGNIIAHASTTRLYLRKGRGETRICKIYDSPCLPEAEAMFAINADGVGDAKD
As to the kind of experiment: Competitive ELISA assay, disruption of BRC4/RAD51 interaction. It is filed as binding. The settings on record: human Rad51, biotinylated BRC4 peptide. A digest of the protocol:
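Competitive ELISA: plates coated with biotinylated BRC4 peptide, blocked with 1% BSA/PBST, then hybridized overnight with human Rad51 protein. Compounds tested in triplicate dose-response, […], 1% DMSO. Bound Rad51 detected colorimetrically with anti-Rad51 antibody, HRP secondary and TMB quenched with HCl.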
(In an ELISA, binding on a coated surface is turned into a signal by an enzyme label.)

Experiment [2] deals with BxPC-3 cells. As to the kind of experiment: Cell viability assay (CellTiter Glo). It is filed as cell-based. The settings on record: Homo sapiens, 72 h. Background: In ATP-based viability assays light output follows the ATP content of the culture.
Experiment [3] deals with Homologous recombination (HR) in BxPC3 cells. In words: Homologous recombination assay (HR). The class given is cell-based. The settings on record: Homo sapiens, BXPC-3, at 40 μM. As for the experimental part: Homologous recombination (HR) was assessed by using a commercially available assay (Norgen). This assay is based on cell co-transfection with two plasmids that, upon cells entering, recombinate. The efficiency of HR can be assessed by real time PCR, using primer mixtures included in the assay kit. Different primer mixtures allow differentiation between the original plasmid backbones and their recombination product.
BxPC3 cells (2×10^3 per well) were seeded in a 24-well plate and allowed to adhere overnight. Co-transfection with the two plasmids was performed in Lipofectamine 2000 (Invitrogen) for 5 h, according to the manufacturer's instructions. During transfection cells were exposed at different doses of BRCA2-Rad51 disruptors, dissolved in RPMI without serum in the presence of 0.6% DMSO.
After washing with PBS, cells were harvested, and DNA was isolated using QIAamp® DNA Mini Kit (Qiagen). Sample concentration was measured using an ONDA Nano Genius photometer.
The thermal cycler (CFX96 ™ Real Time System, BioRad) was programmed as follows: initial denaturation 95° C. for 3 min then 95° C. for 15 sec., 61° C. for 30 sec., 72° C. for 1 min and repeated for 40 cycles. Melt curve analysis was done. Samples were run in triplicate, in 10 μl reaction volume containing 25 ng of template.
In each DNA sample from control and treated cultures, the ΔCt between the recombination product and the backbone plasmids was calculated. HR efficiency was evaluated from the 2^−ΔΔ^Ct value obtained by comparing treated vs control samples.

Experiment [4] deals with BxPC-3 cells. In words: Association with olaparib (given alone or in combination), cell viability / cytotoxicity. The class given is cell-based. The conditions noted are these: olaparib 10 μM, 72 h. On the procedure:
BxPC-3 cells were grown in RPMI 1640 containing 10% FBS, 100 U/ml penicillin/streptomycin, 2 mM glutamine. All media and supplements were from Sigma-Aldrich. Cultures were routinely tested for Mycoplasma contamination. Treatments (Olaparib and BRCA2-Rad51 disruptors) were administered in culture medium supplemented with 0.6% DMSO. The same amount of DMSO was added to the control, untreated cultures.
Cell viability was assessed by CellTiter Glo, Luminescent Cell Viability Assay. Briefly, BxPC-3 cells (1×10^4/well) were plated in white 96-well plates with clear bottom and treated for 72 h with olaparib (10 μM) or with the BRCA2-Rad51 disruptors, given alone or in combination. After treatments, the plate was allowed to equilibrate at room temperature for 30 min and the CellTiter-Glo reactive was directly added to each well. The plate was kept on a shaker for 2 min to induce cell lysis and its luminescence was measured by using a Fluoroskan Ascent FL reader (Labsystems) using manufacturer's instructions.
Cell death was assessed by applying the CellTox™ Green Cytotoxicity assay (Promega). Briefly, BxPC-3 (1×10^4/well) were plated in black 96-well plates with clear bottom and treated for 72 h with olaparib (10 μM) or with the BRCA2-Rad51 disruptors, given alone or in combination. At the end of treatment, the CellTox™ dye was added to cell cultures and the green fluorescence signal, which is produced by the binding interaction with dead cell DNA, was measured following the manufacturer's instructions. The fluorescence signal was detected using the EnSpire 2300 Multilabel Reader (Perkin Elmer); for each sample, the obtained signal was normalized on the number of viable cells, detected by the CellTiterGlo reagent.

pEC50: −log10 of the molar value.

The pEC50 is the negative decadic logarithm of the EC50, by convention in mol/L. Broadly, the inhibition is the relative decrease from the control value, in per cent. Turning to `CCn1cc2cc(-c3ccc(C4CC(c5c(-c6ccccc6)c6cc(Cl)ccc6[nH]c5=O)=NN4C(=O)CCC(=O)O)cc3)ccc2n1` (stereo not shown) [d.46, 4-[5-(6-chloro-2-oxo-4-phenyl-1H-quinolin-3-yl)-3-[4-(2-ethylindazol-5-yl)phenyl]-3,4-dihydropyrazol-2-yl]-4-oxo-butanoic acid], the figures for the pEC50 in experiment [1] and in experiment [2] were 4.77 and 4.36, respectively. Further, the inhibition at 40 µM in experiment [3] came out at 91.7%. Besides, the “Olaparib Assoc.” value in experiment [4] is “synergy”.
`Cn1ccc2cc(C3CC(c4c(-c5ccccc5)c5cc(Cl)ccc5[nH]c4=O)=NN3C(=O)CCC(=O)O)ccc21` (stereo not shown) [d.22, 4-[5-(6-chloro-2-oxo-4-phenyl-1H-quinolin-3-yl)-3-(1-methylindol-5-yl)-3,4-dihydropyrazol-2-yl]-4-oxo-butanoic acid]: the pEC50 was 5.70 in experiment [1] and below 4.70 in experiment [2]. Further, in experiment [4], the “Olaparib Assoc.” value is “synergy”.
